The results in this text go back to ChEMBL document CHEMBL1148818, “1,2,4-triazol-3-yl-thiopropyl-tetrahydrobenzazepines: a series of potent and selective dopamine D(3) receptor antagonists” (J Med Chem, 2007).

Data set [1] is described as follows: in vivo. To be noted: Sprague-Dawley, rat.
Data set [2] can be described thus: in vivo. To be noted: Sprague-Dawley, rat. This is another data set of the same source.
A short description of data set [3]: in vivo. To be noted: Sprague-Dawley, rat, whole blood.
The nature of a further data set: in vitro. To be noted: human, liver microsomes.

Turning to `Cc1ccc2c(-c3nnc(SCCCN4CCc5ccc(-c6cc(C)on6)cc5CC4)n3C)cccc2n1`, the Vd in the data set “in vivo [1]” was 3.4 L/kg. This molecule also yielded a bioavailability in the data set “in vivo [2]” of 24%. In addition, the clearance in “in vivo [3]” was 38 mL/min/kg.
Molecule `Cc1ccc2c(-c3nnc(SCCCN4CCc5ccc(-c6ncc(C)o6)cc5CC4)n3C)cccc2n1` had a Vd in the data set “in vivo [1]” of 7.9 L/kg. Besides, the CLint scaled in the data set “in vitro” was 4.7 mL/min/g. In addition, the bioavailability in the data set “in vivo [2]” came out at 27%. Moreover, the clearance in “in vivo [3]” stood at 59 mL/min/kg.
Turning to `Cc1cnc(-c2ccc3c(c2)CCN(CCCSc2nnc(-c4cccn4C)n2C)CC3)o1`, in “in vitro”, the CLint scaled worked out at 6.4 mL/min/g.
